Patent publication US10633364B2, “Crystals of quinazoline derivative and preparation method therefor” (Xuanzhu Pharma Co., Ltd., priority 2015, dated 2020)
In brackets after ≈: the same amount, converted by molar mass. Where two headings read alike, the source gives them in different places.

Legend:
[1] = test system: erlotinib-resistant H1975 cell line; details: cited from earlier work
[2] = molecular target: EGFR (Homo sapiens, UniProt P00533); details: disclosed in WO2012027960A1; cited from earlier work
Sequence of EGFR (P00533 25-1210): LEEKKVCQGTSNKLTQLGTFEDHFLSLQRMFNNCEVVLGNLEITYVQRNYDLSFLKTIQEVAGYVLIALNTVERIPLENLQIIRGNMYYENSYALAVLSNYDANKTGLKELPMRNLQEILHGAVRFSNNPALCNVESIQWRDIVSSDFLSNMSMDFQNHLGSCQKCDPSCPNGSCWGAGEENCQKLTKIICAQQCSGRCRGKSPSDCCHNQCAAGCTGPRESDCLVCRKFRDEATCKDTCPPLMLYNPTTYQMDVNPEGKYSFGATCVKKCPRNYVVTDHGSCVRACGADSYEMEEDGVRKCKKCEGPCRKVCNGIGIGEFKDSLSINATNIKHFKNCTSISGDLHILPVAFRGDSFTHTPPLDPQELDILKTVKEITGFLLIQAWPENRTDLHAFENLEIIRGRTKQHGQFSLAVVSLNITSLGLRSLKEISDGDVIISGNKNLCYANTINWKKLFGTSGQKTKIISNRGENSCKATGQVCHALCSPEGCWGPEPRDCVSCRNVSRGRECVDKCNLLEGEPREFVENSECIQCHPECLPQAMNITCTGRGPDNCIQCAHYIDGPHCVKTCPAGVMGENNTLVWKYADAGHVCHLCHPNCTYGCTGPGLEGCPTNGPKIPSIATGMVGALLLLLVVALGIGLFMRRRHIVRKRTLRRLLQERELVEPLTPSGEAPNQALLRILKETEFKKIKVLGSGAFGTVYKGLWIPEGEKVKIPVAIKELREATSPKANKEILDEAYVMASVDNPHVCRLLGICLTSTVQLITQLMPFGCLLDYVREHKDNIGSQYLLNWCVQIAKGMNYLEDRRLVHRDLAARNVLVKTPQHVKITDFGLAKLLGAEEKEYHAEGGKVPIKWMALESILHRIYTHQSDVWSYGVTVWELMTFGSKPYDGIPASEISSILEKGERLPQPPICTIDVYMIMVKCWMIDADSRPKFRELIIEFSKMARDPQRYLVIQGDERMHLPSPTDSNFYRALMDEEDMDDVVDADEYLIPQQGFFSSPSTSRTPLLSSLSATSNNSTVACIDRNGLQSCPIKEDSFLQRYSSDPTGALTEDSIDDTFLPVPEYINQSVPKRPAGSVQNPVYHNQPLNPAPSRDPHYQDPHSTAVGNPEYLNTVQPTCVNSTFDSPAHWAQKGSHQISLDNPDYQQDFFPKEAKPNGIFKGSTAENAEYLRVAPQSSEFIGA

[3] = molecular target: HER2 (Homo sapiens, UniProt P04626); details: disclosed in WO2012027960A1; cited from earlier work
Sequence of HER2 (P04626 23-1255): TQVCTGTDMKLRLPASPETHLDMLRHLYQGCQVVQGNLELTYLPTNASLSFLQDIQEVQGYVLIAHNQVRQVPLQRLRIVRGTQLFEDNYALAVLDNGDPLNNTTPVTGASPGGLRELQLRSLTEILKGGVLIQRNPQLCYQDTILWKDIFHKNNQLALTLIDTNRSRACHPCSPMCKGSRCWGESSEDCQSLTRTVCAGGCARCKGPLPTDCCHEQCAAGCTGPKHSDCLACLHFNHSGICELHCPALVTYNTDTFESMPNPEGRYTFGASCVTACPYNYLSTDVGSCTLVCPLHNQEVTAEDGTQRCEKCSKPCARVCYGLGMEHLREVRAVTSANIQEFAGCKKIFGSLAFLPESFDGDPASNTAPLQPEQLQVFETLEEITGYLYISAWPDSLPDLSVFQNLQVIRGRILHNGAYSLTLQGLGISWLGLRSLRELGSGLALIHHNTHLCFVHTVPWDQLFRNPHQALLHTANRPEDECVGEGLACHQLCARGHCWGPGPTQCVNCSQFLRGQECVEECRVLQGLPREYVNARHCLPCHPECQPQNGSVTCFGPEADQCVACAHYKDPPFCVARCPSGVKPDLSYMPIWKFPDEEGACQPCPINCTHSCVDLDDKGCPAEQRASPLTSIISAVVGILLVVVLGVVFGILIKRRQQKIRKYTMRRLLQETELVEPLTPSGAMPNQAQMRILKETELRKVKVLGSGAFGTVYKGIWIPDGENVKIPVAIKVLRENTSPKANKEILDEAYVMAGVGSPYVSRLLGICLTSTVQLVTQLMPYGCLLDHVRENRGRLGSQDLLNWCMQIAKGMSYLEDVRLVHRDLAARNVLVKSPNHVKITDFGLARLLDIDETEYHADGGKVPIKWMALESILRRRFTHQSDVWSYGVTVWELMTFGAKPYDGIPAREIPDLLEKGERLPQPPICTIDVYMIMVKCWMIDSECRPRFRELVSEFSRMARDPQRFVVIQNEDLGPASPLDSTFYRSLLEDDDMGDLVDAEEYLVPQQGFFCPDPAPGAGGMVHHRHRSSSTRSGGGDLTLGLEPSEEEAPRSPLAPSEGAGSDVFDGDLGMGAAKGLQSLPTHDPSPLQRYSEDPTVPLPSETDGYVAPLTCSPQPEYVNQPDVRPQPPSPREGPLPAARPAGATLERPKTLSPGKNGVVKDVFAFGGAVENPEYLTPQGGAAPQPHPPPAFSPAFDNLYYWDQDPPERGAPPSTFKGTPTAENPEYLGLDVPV

[4] = molecular target: HER4 (Homo sapiens, UniProt Q15303); details: disclosed in WO2012027960A1; cited from earlier work
Sequence of HER4 (Q15303 26-1308): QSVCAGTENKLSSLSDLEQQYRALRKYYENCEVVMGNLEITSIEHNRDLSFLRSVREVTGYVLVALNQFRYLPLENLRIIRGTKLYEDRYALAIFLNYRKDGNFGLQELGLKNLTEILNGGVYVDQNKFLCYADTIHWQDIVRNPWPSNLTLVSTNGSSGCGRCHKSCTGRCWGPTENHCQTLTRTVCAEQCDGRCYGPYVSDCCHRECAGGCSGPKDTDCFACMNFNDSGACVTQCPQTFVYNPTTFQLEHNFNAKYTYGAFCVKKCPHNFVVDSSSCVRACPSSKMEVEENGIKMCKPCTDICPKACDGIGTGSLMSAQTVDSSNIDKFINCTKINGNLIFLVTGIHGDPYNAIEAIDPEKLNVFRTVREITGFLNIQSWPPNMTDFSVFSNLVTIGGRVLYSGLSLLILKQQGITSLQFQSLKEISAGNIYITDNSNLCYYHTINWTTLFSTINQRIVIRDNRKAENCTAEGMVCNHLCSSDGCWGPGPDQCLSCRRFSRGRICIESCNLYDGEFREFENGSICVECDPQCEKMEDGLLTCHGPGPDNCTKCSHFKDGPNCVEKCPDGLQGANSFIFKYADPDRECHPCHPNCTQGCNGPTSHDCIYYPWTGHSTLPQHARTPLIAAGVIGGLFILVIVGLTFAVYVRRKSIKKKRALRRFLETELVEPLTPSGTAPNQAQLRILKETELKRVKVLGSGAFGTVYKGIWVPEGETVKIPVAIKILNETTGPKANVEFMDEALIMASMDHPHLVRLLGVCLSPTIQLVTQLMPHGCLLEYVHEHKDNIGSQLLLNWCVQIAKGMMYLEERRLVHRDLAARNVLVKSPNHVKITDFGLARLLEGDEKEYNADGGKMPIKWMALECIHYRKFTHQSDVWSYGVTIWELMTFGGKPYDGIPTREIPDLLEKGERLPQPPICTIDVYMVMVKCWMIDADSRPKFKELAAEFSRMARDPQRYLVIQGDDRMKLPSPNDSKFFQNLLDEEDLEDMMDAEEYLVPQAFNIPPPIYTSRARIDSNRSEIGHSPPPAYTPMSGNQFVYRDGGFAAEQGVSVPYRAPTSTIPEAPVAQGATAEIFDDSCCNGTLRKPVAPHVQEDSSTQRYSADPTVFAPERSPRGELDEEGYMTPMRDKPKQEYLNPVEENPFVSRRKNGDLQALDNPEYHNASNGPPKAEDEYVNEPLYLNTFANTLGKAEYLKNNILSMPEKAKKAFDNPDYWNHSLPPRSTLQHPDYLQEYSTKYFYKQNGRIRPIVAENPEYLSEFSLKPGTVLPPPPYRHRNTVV

[5] = Pharmacokinetics of different forms in beagle dogs; format: in vivo; details: capsule, 3 mg/kg
Procedure: Animal subject: beagle dogs, male, weighed 8˜14 kg, 3 dogs/crystal form. Beagle dogs were purchased from Beijing Marshall Biotechnology Co. Ltd.
Administration: three test samples were prepared into capsules, at an administration dose of 3 mg/kg according to body weight of dog.
About 37.3 mg of an amorphous compound was weighed, and packaged into hollow capsules (three capsules in total, one capsule per dog).
Blood was collected 10 min, 30 min, 1 h, 2 h, 4 h, 6 h, 8 h, and 24 h after administration. Before blood collection, the animals were fixed, and whole blood (about 400 μL) was collected from vein of forelimb at each time point, and added to K2EDTA-containing anticoagulation tubes. The whole blood sample was centrifuged for 6 min at 4° C., 8000 rpm in a high speed centrifuge, and plasma was separated. Plasma needed to be prepared within 30 min after blood collection, and plasma was stored at −80° C. in a refrigerator.
The plasma samples were analyzed by protein precipitation: to plasma (50 μL), an internal standard Afatinib dimaleate (200 μL, 50 ng/mL acetonitrile solution) was added; the resultant mixture was vortexed at 1500 rpm for 3 min, and centrifuged at 12000 rpm for 5 min; to the supernatant (100 μL), water (100 μL) was added; the resultant mixture was mixed homogeneously under vortexing and analyzed by LC-MS/MS for blood concentration.
PK parameters were calculated by using Pharsight Phoenix 6.2 software.

[6] = Stability of Crystal form I under accelerated condition and long-term condition; format: physicochemical; details: 30° C. 1 month
[7] = Soluble property test in water; format: physicochemical
Procedure: (1) Soluble property test: to a test sample, adding a corresponding solvent dropwise in a small amount for several times, shaking in a 25° C. thermostat water bath until the sample was completely dissolved, and calculating the dissolved concentration, i.e., soluble property.

[8] = Solubility test (saturated solubility) in water; format: physicochemical
From the text: (2) Solubility test: to a suitable volume of water, adding a test sample until oversaturation occurred in the solution of the sample, vortexing, centrifuging, filtrating the supernatant and then diluting it to a suitable concentration, subjecting the sample to a liquid chromatographic instrument, and determining the saturated concentration of the sample (i.e., saturated solubility) by external standard method.

[9] = Stability of Crystal form I under influencing factor condition (high temperature of 60° C.); format: physicochemical
Procedure: A test sample was kept under influencing factor condition (a high temperature of 60° C.) for 30 d. Samples were separately taken at specified time points, and compared with the sample at Day 0. XRPD, relevant substances, contents, character, acidity, moisture content, and the like were determined. During the study, samples were packaged with plastic bags and sealed with aluminum foil outside.
(§1) In accordance with High Performance Liquid Chromatography in Appendix V D in Pharmacopoeia of the People's Republic of China (2010), samples at Day 0 were used as control samples, and samples were determined by external standard method.
(§2) In accordance with High Performance Liquid Chromatography in Appendix V D in Pharmacopoeia of the People's Republic of China (2010), samples were determined by area normalization method.
(§3) The moisture content was determined in accordance with First Method for Determining Moisture Content B (Coulometric Titration) in Appendix VIII M in Pharmacopoeia of the People's Republic of China (2010).

[10] = Stability of Crystal form I under accelerated condition and long-term condition; format: physicochemical
Procedure: Test samples were kept under accelerated condition (40° C.+RH 75%) for 6 months. Samples were separately taken at specified time points. XRPD, character, relevant substances, content, acidity, moisture content and the like were studied.
Test samples were kept under long-term condition (25° C.) for 6 months. Samples were separately taken at specified time points. Important items of stability (relevant substances) were studied.
At the last time point of the accelerated condition and long-term condition, XRPD, character, relevant substances, content, pH, moisture content and the like were studied.
as §1, §2, §3

[11] = Stability of Crystal form II under influencing factor condition; format: physicochemical
Procedure: Test samples in culture dishes were left uncovered. The test samples, which were kept under influencing factor conditions (a high temperature of 60° C., 25° C.-high moisture RH 75%, and 25° C.-high moisture RH 92.5%, under the condition of light) for 5 days and 10 days, were studied for stability; and the test samples which were kept at 40° C. for 5 days, 10 days and 30 days, and the test samples which were kept at 25° C. for 30 days and 90 days, were studied for stability. Samples were separately taken at specified time points, and the items (moisture content (Coulomb), relevant substances, XRPD) were studied. In accordance with High Performance Liquid Chromatography in Appendix V D in Pharmacopoeia of the People's Republic of China (2010), samples were determined by area normalization method. The moisture content was determined in accordance with First Method for Determining Moisture Content B (Coulometric Titration) in Appendix VIII M in Pharmacopoeia of the People's Republic of China (2010).

[12] = RH75% 5 days, 25° C., uncovered
[13] = RH75% 10 days, 25° C., uncovered
[14] = RH92.5% 5 days, 25° C., uncovered
[15] = RH92.5% 10 days, 25° C., uncovered

## C=CC(=O)Nc1cc2c(Nc3ccc(F)c(Cl)c3)ncnc2cc1OCC1CC2(CCN(C)CC2)C1 [Formula (I), N-(4-((3-chloro-4-fluorophenyl)amino)-7-((7-methyl-7-azaspiro[3.5]nonan-2-yl)methoxy)quinazolin-6-yl)acrylamide]
[1]
  Inhibitory effect on H1975 cell line: significantly inhibitory effect
[2]
  Inhibition of EGFR: effectively inhibit EGFR
[3]
  Inhibitory effect on HER2: inhibitory effect
[4]
  Inhibitory effect on HER4: inhibitory effect

## C=CC(=O)Nc1cc2c(Nc3ccc(F)c(Cl)c3)ncnc2cc1OCC1CC2(CCN(C)CC2)C1 [Amorphous form, N-(4-((3-chloro-4-fluorophenyl)amino)-7-((7-methyl-7-azaspiro[3.5]nonan-2-yl)methoxy)quinazolin-6-yl)acrylamide]
[5]
  AUC0-t: 68.6 ng·h/mL
  AUCinf: 79.9 ng·h/mL
  Cmax: 16.6 ng/mL
  T1/2: 2.47 h
  Tmax: 2.00 h

## C=CC(=O)Nc1cc2c(Nc3ccc(F)c(Cl)c3)ncnc2cc1OCC1CC2(CCN(C)CC2)C1 [Crystal form I, N-(4-((3-chloro-4-fluorophenyl)amino)-7-((7-methyl-7-azaspiro[3.5]nonan-2-yl)methoxy)quinazolin-6-yl)acrylamide]
[6]
  Content: 100.8%
  Moisture content: 4.3%
  Relevant substances: 0.18%
  pH: 2.8
[7]; 25° C.
  Soluble property (descriptive term): slightly soluble, (soluble
[7]; 25 °C, thermodynamic from solid
  solubility: 20 mg/mL (≈ 39.2 mM)
[8]; thermodynamic from solid
  solubility: 39.1 mg/mL (≈ 76.7 mM)
[9]; 0 day
  Content: 100.8%
  Moisture content: 3.9%
  Relevant substances: 0.15%
  pH: 2.8
[9]; 60° C.-covered-1 month
  Content: 100.7%
  Moisture content: 4.4%
  Relevant substances: 0.20%
  pH: 2.8
[9]; 60° C.-covered-5 days
  Content: 100.9%
  Moisture content: 4.5%
  Relevant substances: 0.23%
  pH: 2.8
[9]; 60° C.-covered-10 days
  Content: 100.7%
  Moisture content: 4.5%
  Relevant substances: 0.24%
  pH: 2.7
[9]; kept under various conditions for 1 month (Tables 3 and 4)
  Overall stability conclusion: high stability
[5]
  T1/2: 4.95 h
[5]; male, beagle, dog, plasma, po
  AUC(0-inf): 115 ng·h/mL
[5]; male, beagle, dog, plasma, po, read-out: AUC0-t
  AUC0-t: 112 ng·h/mL
[5]; male, beagle, dog, plasma, po, read-out: Cmax
  Cmax: 15.3 ng/mL
[5]; male, dog, plasma, po, read-out: Tmax
  Tmax: 2 h
[10]; 0 day
  Content: 100.8%
  Moisture content: 3.9%
  Relevant substances: 0.15%
  pH: 2.8
[10]; 25° C. 1 month
  Content: 100.7%
  Moisture content: 4.2%
  Relevant substances: 0.18%
  pH: 2.8
[10]; 40° C. 1 month
  Content: 100.9%
  Moisture content: 4.6%
  Relevant substances: 0.19%
  pH: 2.8

## C=CC(=O)Nc1cc2c(Nc3ccc(F)c(Cl)c3)ncnc2cc1OCC1CC2(CCN(C)CC2)C1 [Crystal form II, N-(4-((3-chloro-4-fluorophenyl)amino)-7-((7-methyl-7-azaspiro[3.5]nonan-2-yl)methoxy)quinazolin-6-yl)acrylamide]
[7]; 25° C.
  Soluble property: property: 23.23) mg/mL
  Soluble property (descriptive term): slightly soluble, (soluble
[8]
  Solubility (saturated solubility): solubility: 28.94 mg/mL
[5]
  AUC0-t: 110 ng·h/mL
  AUCinf: 111 ng·h/mL
  Cmax: 14.6 ng/mL
  T1/2: 3.98 h
  Tmax: 2.00 h
[11]; 0 day
  Moisture content: 13.1%
  Relevant substances: 1.2%
[11]; 25° C. 3 months, uncovered
  Moisture content: 13.4%
  Relevant substances: 1.3%
[11]; 25° C. 30 days, uncovered
  Moisture content: 13.1%
  Relevant substances: 1.3%
[11]; 40° C. 5 days, uncovered
  Crystal form XRPD: Crystal form I
  Moisture content: 4.5%
  Relevant substances: 1.3%
[11]; 40° C. 10 days, uncovered
  Crystal form XRPD: Crystal form I
  Moisture content: 5.6%
  Relevant substances: 1.6%
[11]; 40° C. 30 days, uncovered
  Crystal form XRPD: Crystal form I
  Moisture content: 5.3%
  Relevant substances: 3.0%
[11]; 60° C. 5 days, uncovered
  Crystal form XRPD: Crystal form I
  Moisture content: 4.4%
  Relevant substances: 1.8%
[11]; 60° C. 10 days, uncovered
  Crystal form XRPD: Crystal form I
  Moisture content: 5.3%
  Relevant substances: 2.3%
[11]; Light 5 days, uncovered
  Moisture content: 13.2%
  Relevant substances: 1.5%
[11]; Light 10 days, uncovered
  Moisture content: 13.3%
  Relevant substances: 1.8%
[11]; [12]
  Moisture content: 13.2%
  Relevant substances: 1.3%
[11]; [13]
  Moisture content: 13.3%
  Relevant substances: 1.3%
[11]; [14]
  Moisture content: 13.4%
  Relevant substances: 1.2%
[11]; [15]
  Moisture content: 13.5%
  Relevant substances: 1.3%
[11]; Table 5 conditions
  Overall stability conclusion: sensitive to high temperature conditions
